Measurements reported in ChEMBL document CHEMBL1136240, “Synthesis and anthelmintic activity of cyclohexadepsipeptides with (S,S,S,R,S,R)-configuration” (Bioorg Med Chem Lett, 2003).

Key:
[1] = LogP (Octanol-water partition coefficient) was measured at pH 2.3; assay type: physicochemical
Ovis aries [2] = test: In vivo antihelminthic activity against Haemonchus contortus in sheep at a dose of 0.50 mg kg-1; assay type: functional; conditions: dose 0.5 mg kg-1
Ovis aries [3] = test: In vivo antihelminthic activity against Haemonchus contortus in sheep at a dose of 0.10 mg kg-1; assay type: functional; conditions: dose 0.1 mg kg-1
Ovis aries [4] = test: In vivo antihelminthic activity against Haemonchus contortus in sheep at a dose of 0.250 mg kg-1; assay type: functional; conditions: dose 0.25 mg kg-1
Ovis aries [5] = test: In vivo antihelminthic activity against Haemonchus contortus in sheep at a dose of 0.05 mg kg-1; assay type: functional

Structure (SMILES)	logD [1]	Egg reduction (Ovis aries [2])	Egg reduction (Ovis aries [3])	Egg reduction (Ovis aries [4])	Egg reduction (Ovis aries [5])
CCC(C)[C@H]1C(=O)O[C@H](C)C(=O)N(C)[C@@H](C(C)CC)C(=O)O[C@H](C)C(=O)N(C)[C@@H](C(C)CC)C(=O)O[C@H](C)C(=O)N1C (stereo partly specified)	4.2	>=95%	–	–	–
CCCC[C@H]1OC(=O)[C@H](C(C)CC)N(C)C(=O)[C@@H](C)OC(=O)[C@H](C(C)CC)N(C)C(=O)[C@@H](C)OC(=O)[C@H](C(C)CC)N(C)C1=O (stereo partly specified)	5.14	–	>=95%	–	–
CCC(C)[C@H]1C(=O)O[C@H](C)C(=O)N(C)[C@@H](C(C)CC)C(=O)O[C@H](C)C(=O)N(C)[C@@H](C(C)CC)C(=O)OCC(=O)N1C (stereo partly specified)	4	–	–	>=95%	–
CCC(C)[C@H]1C(=O)O[C@H](C(C)C)C(=O)N(C)[C@@H](C(C)CC)C(=O)O[C@H](C(C)C)C(=O)N(C)[C@@H](C(C)CC)C(=O)O[C@H](C(C)C)C(=O)N1C (stereo partly specified)	–	>=95%	–	–	–

Further lines, with some results ahead:

logD [1]	Structure (SMILES)	Egg reduction (Ovis aries [2])	Egg reduction (Ovis aries [3])	Egg reduction (Ovis aries [4])	Egg reduction (Ovis aries [5])
3.26	CCC(C)[C@H]1C(=O)O[C@H](C)C(=O)N(C)[C@@H](C)C(=O)O[C@H](C)C(=O)N(C)[C@@H](C(C)CC)C(=O)O[C@H](C)C(=O)N1C (stereo partly specified)	–	–	–	>=95%
3.1	CC[C@H](C)[C@H]1C(=O)O[C@H](C)C(=O)N(C)[C@@H]([C@@H](C)CC)C(=O)O[C@H](C)C(=O)N(C)[C@@H](C)C(=O)OC(C)C(=O)N1C (single isomer, unassigned)	–	>=95%	–	–
